Measured values: the supplement of paper PMC11061612

What was measured:
Experiment in all cases: Bliss excess, mean over the matrix (fraction); higher = more synergy
[1] = test system: ESS-1 (Other Solid Carcinomas)
Procedure, shortened: (§1)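 Bliss excess equals the observed combination effect minus the expected value EA + EB − EA·EB, where EA and EB are the effects of each agent alone. Combination Emax is the second-highest inhibition within the matrix. Inhibition was scaled from CellTiter-Glo 2.0 luminescence, with 0 set by vehicle wells and 1 by blank wells, after 72 hours of two-drug dosing of cells plated in 1536-well plates.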

[2] = test system: WSU-NHL (B-Cell Non-Hodgkin's Lymphoma)
Procedure, shortened: as §1

[3] = test system: BE-13 (T-Lymphoblastic Leukemia)
Procedure, shortened: as §1

MPP-89 (Mesothelioma) = test system: MPP-89 (Mesothelioma)
Procedure, shortened: as §1

LOXIMVI (Melanoma) = test system: LOXIMVI (Melanoma)
Procedure, shortened: as §1

[4] = test system: HuCCT1 (Biliary Tract Carcinoma)
Procedure, shortened: as §1

[5] = test system: SW1710 (Bladder Carcinoma)
Procedure, shortened: as §1

[6] = test system: NCI-H524 (Small Cell Lung Carcinoma)
Procedure, shortened: as §1

KS-1 (Glioblastoma) = test system: KS-1 (Glioblastoma)
Procedure, shortened: as §1

A673 (Ewing's Sarcoma) = test system: A673 (Ewing's Sarcoma)
Procedure, shortened: as §1

[7] = test system: OVCAR-5 (Ovarian Carcinoma)
Procedure, shortened: as §1

| SMILES | Bliss excess [1] | Bliss excess [2] | Bliss excess [3] | Bliss excess (MPP-89 (Mesothelioma)) | Bliss excess (LOXIMVI (Melanoma)) | Bliss excess [4] | Bliss excess [5] | Bliss excess [6] | Bliss excess (KS-1 (Glioblastoma)) | Bliss excess (A673 (Ewing's Sarcoma)) | Bliss excess [7] |
| --- | --- | --- | --- | --- | --- | --- | --- | --- | --- | --- | --- |
| CC1(C)CCC(CN2CCN(c3ccc(C(=O)NS(=O)(=O)c4ccc(NCC5CCOCC5)c([N+](=O)[O-])c4)c(Oc4cnc5[nH]ccc5c4)c3)CC2)=C(c2ccc(Cl)cc2)C1 [Venetoclax] + CS(=O)(=O)CCNCc1ccc(-c2ccc3ncnc(Nc4ccc(OCc5cccc(F)c5)c(Cl)c4)c3c2)o1 [Lapatinib] (first compound max 1 µM, 7x7, partner max 10 µM) | 0.0298 | 0.0482 | -0.0101 | -0.0532 | 0.007 | -0.0803 | -0.0415 | -0.0393 | -0.0411 | -0.0426 | -0.0479 |
| C[C@@H]1COCCN1c1cc(C2([S@](C)(=N)=O)CC2)nc(-c2ccnc3[nH]ccc23)n1 [AZD6738] + C1CC(C1)(C(=O)[O-])C(=O)[O-].N.N.[Pt+2] [Carboplatin] (first compound max 10 µM, 7x7, partner max 10 µM) | 0.0196 | -0.054 | -0.0436 | -0.035 | -0.0438 | -0.0477 | -0.0642 | -0.0512 | -0.0536 | 0.0216 | -0.0347 |
| O=C(c1cc(Cc2n[nH]c(=O)c3ccccc23)ccc1F)N1CCN(C(=O)C2CC2)CC1 [Olaparib] + CN(CC[C@H](CSC1=CC=CC=C1)NC2=C(C=C(C=C2)S(=O)(=O)NC(=O)C3=CC=C(C=C3)N4CCC(CC4)[C@H](C5=CC=CC=C5C6=CC=C(C=C6)Cl)O)S(=O)(=O)C(F)(F)F)CCO [AZD4320] (first compound max 10 µM, 7x7, partner max 1 µM) | 0.0825 | 0.0345 | 0.0096 | -0.0662 | 0.0022 | -0.0518 | -0.0397 | 0.0085 | -0.041 | 0.0265 | -0.0414 |
| Cc1c2c(nn1C)CSCc1cc(n(C)n1)CSc1cc(c3ccccc3c1)OCCCc1c(C(=O)O)n(C)c3c-2c(Cl)ccc13 [AZD5991] + CC(=O)O[C@H]1C(=O)[C@@]2(C)[C@H]([C@H](OC(=O)c3ccccc3)[C@]3(O)C[C@H](OC(=O)[C@H](O)[C@@H](NC(=O)c4ccccc4)c4ccccc4)C(C)=C1C3(C)C)[C@]1(OC(C)=O)CO[C@@H]1C[C@@H]2O [Paclitaxel] (first compound max 1 µM, 7x7, partner max 3 µM) | 0.0341 | -0.0565 | -0.0476 | -0.0347 | -0.0081 | -0.0164 | -0.0241 | -0.0264 | -0.0057 | 0.0296 | -0.0389 |
| C[C@@H](Nc1cc(F)cc(F)c1)c1cc(C(=O)N(C)C)cc2c(=O)cc(N3CCOCC3)oc12 [AZD8186] + C1CN(CCC1(C(=O)N[C@@H](CCO)C2=CC=C(C=C2)Cl)N)C3=NC=NC4=C3C=CN4 [AZD5363] (first compound max 10 µM, 7x7, partner max 10 µM) | -0.0165 | -0.0018 | -0.028 | -0.0635 | -0.0495 | -0.0171 | -0.0408 | -0.0342 | -0.0233 | 0.0084 | -0.0442 |
| Cc1c2c(nn1C)CSCc1cc(n(C)n1)CSc1cc(c3ccccc3c1)OCCCc1c(C(=O)O)n(C)c3c-2c(Cl)ccc13 [AZD5991] + Nc1ccn([C@@H]2O[C@H](CO)[C@@H](O)C2(F)F)c(=O)n1 [Gemcitabine] (first compound max 1 µM, 7x7, partner max 0.3 µM) | -0.0338 | -0.0514 | -0.0088 | -0.0354 | -0.0338 | -0.0171 | -0.0571 | -0.0212 | -0.0354 | -0.021 | -0.0442 |
| O=C(c1cc(Cc2n[nH]c(=O)c3ccccc23)ccc1F)N1CCN(C(=O)C2CC2)CC1 [Olaparib] + COc1nnc2ccc(N3CCC(c4ccc(OCCN5CCN(C)C(=O)[C@H]5C)cc4)CC3)nn12 [AZD5153] (first compound max 10 µM, 7x7, partner max 1 µM) | -0.0139 | -0.06 | -0.0681 | -0.0489 | -0.0792 | -0.0637 | 0.0021 | -0.0532 | -0.0205 | -0.077 | -0.0584 |
| Cc1c2c(nn1C)CSCc1cc(n(C)n1)CSc1cc(c3ccccc3c1)OCCCc1c(C(=O)O)n(C)c3c-2c(Cl)ccc13 [AZD5991] + CS(=O)(=O)CCNCc1ccc(-c2ccc3ncnc(Nc4ccc(OCc5cccc(F)c5)c(Cl)c4)c3c2)o1 [Lapatinib] (first compound max 1 µM, 7x7, partner max 10 µM) | 0.0292 | -0.0347 | 0.0363 | -0.0088 | 0.017 | 0.0065 | -0.0639 | -0.0908 | -0.0277 | 0.0006 | -0.0071 |
| C[C@@H](Oc1cc(-c2cnn(C3CCNCC3)c2)cnc1N)c1c(Cl)ccc(F)c1Cl [Crizotinib] + Cn1cnc2c(F)c(Nc3ccc(Br)cc3Cl)c(C(=O)NOCCO)cc21 [Selumetinib] (first compound max 10 µM, 7x7, partner max 10 µM) | -0.0634 | -0.0382 | -0.0251 | -0.0078 | -0.0068 | -0.0516 | -0.0956 | -0.0449 | 0.0483 | -0.0206 | -0.0324 |
